The values that follow come from patent US11219632B2, “Skin pigmentation inhibitor” (Oriental Yeast Co., Ltd., priority 2017, dated 2022).

Type in all cases: in vivo, brown guinea pig
Data set [1] relates to pigmentation induced by ultraviolet. Description: Ultraviolet-induced skin pigmentation in brown guinea pigs, oral and transdermal β-NMN (Example 2). The conditions noted are these: for ΔL value at ultraviolet irradiation site: 28 days from first irradiation. The source says:
(§1) Brown guinea pigs (Kw1: line A-1, supplied from Kiwa Laboratory Animals Co., Ltd.) used for the subsequent experiment were bred under SPF environment throughout the entire experimental period. As in a case of humans, it is known that pigmentation of the brown guinea pigs of Kw1: line A-1 is caused by ultraviolet irradiation.
(§2) First, an unanesthetized brown guinea pig was fixed on a fixed plate in an abdominal position, and the back skin was sheared with an electric hair clipper and shaved with an electric shaver. Among the shaved area of the back skin, a region obtained by cutting out a region corresponding to the irradiation site by attaching a tape for bookbinding to an adhesive fabric stretchable bandage (ELASTOPORE No. 50, Nichiban Co., Ltd.) was attached on a site other than the ultraviolet irradiation site, and thereby the region other than the radiation site was light-shielded. Further, the eyes of the guinea pig were also light-shielded from ultraviolet by attaching lint cloth with the adhesive fabric stretchable bandage. Thereafter, ultraviolet (UVB) irradiation was performed from a distance of 40 cm using five SE lamps (wavelength of 250 to 350 nm, FL20S E, Toshiba Corporation) attached to an ultraviolet irradiation apparatus (Y-798-II, Orion Electric Co., Ltd.).
(§3) Regarding oral administration, a solution in which β-NMN (Oriental Yeast Co., Ltd.) was dissolved in injection water (Otsuka Pharmaceutical Factory, Inc.) was orally administered forcedly using a disposable syringe made of polypropylene (Terumo Corporation) attached with a catheter (a nutrition catheter manufactured by JMS Co., Ltd.). […] A dosage was calculated from a body weight value on an administration day or a day close to the administration day, and the dosage was 5 mL/kg.
Effects of β-NMN on pigmentation induced by ultraviolet were examined using brown guinea pigs.
Ethanol (lot number: DSM5187, Wako Chemical Co., Ltd.), 1,3-butanediol (lot number: TWQ 6672, Wako Pure Chemical Industries, Ltd.), and injection water (lot number: K5F71, Otsuka Pharmaceutical Factory, Inc.) were mixed at a ratio of 1:1:8 (a volume ratio), and used as a solvent. A solution dissolved β-NMN in this solvent at a concentration of 0.5% by mass was used as a β-NMN-containing external preparation.
First, six brown guinea pigs were divided into a group orally administered β-NMN and a group not administered β-NMN. […]

Data set [2] has the same test system. The data set can be described thus: Ultraviolet-induced skin pigmentation in brown guinea pigs, oral β-NMN (Example 1). As to conditions: for ΔL value at ultraviolet irradiation site: oral 500 mg/kg body weight once a day.
Description: as §1, §2, §3
Effects of […] on pigmentation induced by ultraviolet were examined using brown guinea pigs.
First, six brown guinea pigs were divided into a group administered β-NMN (NMN group) and a group administered injection water (control group). A day performed this group dividing was considered day 0 of administration, and from the next day, the β-NMN solution or injection water was orally administered to the guinea pigs of each group once a day for 42 days. The β-NMN solution was administered at a dosage of 500 mg/kg body weight. […]
(Measurement of pigmentation) L values (brightness) of the skin of the ultraviolet irradiation site of each guinea pig were measured by using Chroma Meter (CR-300, Konica Minolta, Inc.) on the first irradiation day (day 0), and on days 14, 21, and 28. […] On days 0, 14 and 21, L values were measured before the ultraviolet irradiation, and on day 28, L values were measured in the morning. […]

Data set [3] can be described thus: Body weight of brown guinea pigs during oral β-NMN administration (Example 1). The conditions noted are these: for Body weight: oral 500 mg/kg. The protocol: First, six brown guinea pigs were divided into a group administered β-NMN (NMN group) and a group administered injection water (control group). A day performed this group dividing was considered day 0 of administration, and from the next day, the β-NMN solution or injection water was orally administered to the guinea pigs of each group once a day for 42 days. The β-NMN solution was administered at a dosage of 500 mg/kg body weight.
A body weight of each guinea pig was measured with an electronic balance in the morning once a week from the first administration day. The measurement was performed before the irradiation on the irradiation day, and before the administration on the β-NMN administration day.

Each structure is given as a SMILES string.

Consider `NC(=O)c1ccc[n+]([C@@H]2O[C@H](COP(=O)([O-])O)[C@@H](O)[C@H]2O)c1` [NMN, Nicotinamide mononucleotide], for which the “ΔL value at ultraviolet irradiation site” value came out at 6.01 in data set [1] (NMN oral administration group (oral 500 mg/kg, solvent only on skin)); 5.20 in data set [1] (NMN transdermal & oral administration group (oral 500 mg/kg plus 0.05 mL of 0.5% by mass external preparation per site)); 8.28 in data set [2] (day 14 after first irradiation); 8.99 in data set [2] (day 21 after first irradiation); 9.55 in data set [2] (day 28 after first irradiation). In data set [1] (oral administration only), the “Pigmentation compared with the control group” value was “pigmentation was inhibited”. In addition, the “Pigmentation compared with only oral administration” value in data set [1] (transdermal administration in addition to oral administration) is listed as “pigmentation was further inhibited”. Moreover, the “Pigmentation compared to the control group” value in data set [2] (oral 500 mg/kg body weight once a day for 42 days) is “pigmentation was inhibited”. In addition, the Body weight in data set [3] (0 days after first administration) is reported as 405 ± 22 g; in data set [3] (1 day after first administration), 408 ± 23 g; in data set [3] (8 days after first administration), 431 ± 23 g; in data set [3] (15 days after first administration), 462 ± 33 g; in data set [3] (22 days after first administration) it was 497 ± 34 g; in data set [3] (29 days after first administration) it was 529 ± 29 g. For the same compound, the Body weight in data set [3] (36 days after first administration) is recorded as 551 ± 35 g; in data set [3] (43 days after first administration), 584 ± 33 g. For the same compound, the “Body weight difference versus control group” value in data set [3] (oral 500 mg/kg once a day for 42 days) is listed as “no significant difference in body weight”.
